Reference: patent publication US20190364891A1, “Chemical Compositions for Combating Honey Bee Pests and Pathogens” (Fort Lewis College, priority 2018, published 2019)

Assays:
[1] = system: Varroa mites; assay: whole plant or invertebrate; conditions: for mite mortality: 24 h; for statistically significant mite mortality (Kruskal-Wallis): at 24 h, 100 mg/mL, 250 mg/mL, 1 g/mL tested, 15, 30 or 45 min exposure
Experimental: Efficacy of 12 caffeic and ferulic acid/ester molecules (caffeic acid, ferulic acid, caffeic acid cinnamyl ester, caffeic acid phenethyl ester, caffeic acid 3-methyl-3-butenyl ester, caffeic acid 3-methyl-2-butenyl ester, caffeic acid benzyl ester, ferulic acid cinnamyl ester, ferulic acid phenethyl ester, ferulic acid 3-methyl-3-butenyl ester, ferulic acid 3-methyl-2-butenyl ester, ferulic acid benzyl ester) against Varroa mites in a laboratory assay was determined. Adult female mites were collected from a single honey bee colony by uncapping drone cells and removing the mites to avoid injury that might occur if other methods (e.g., sugar shake) were used. Mites lacking vigor were discarded prior to experiment. Varroa were removed from single-age pupae, randomized, and placed in groups of ten in a sealed chamber. They were left in an incubator with pupae. After a set amount of time, the Varroa were transferred to a chamber with a potential miticide. The effects of each miticide were evaluated both through contact and through vapor. Concentrations and contact time were also evaluated. The Varroa were then transferred back to their chamber in the incubator and checked for mortality (each experiment in triplicate). […] Treatments were tested for their efficacy in repelling and killing mites.
To test for contact-phase miticidal activity, 250 μl of each treatment was evenly applied to a Whatman No. 4 filter paper in a Petri dish. The paper was allowed to completely dry before the assay and then it was adhered to the bottom of the dish. Ten mites per treatment were placed directly on the filter paper and the mites were kept in the dish for either 15 min, 30 min, or 45 min. After the initial time period, all mites were transferred into a sterile Petri dish and maintained in an incubator for 30 h. Each hour the mites were removed and observed under a dissecting lens. Each treatment concentration and exposure period was repeated three times.
Statistical analysis for repellency was conducted on the mean number of mites repelled and was compared by a two-way ANOVA. […] Percent mortality was compared between treatments by a non-parametric Kruskal-Wallis test.

[2] = system: Varroa mites; assay: Example 2: mites exposed to filter paper impregnated with the caffeic ester family, mite mortality and activity; parameters: species or system Varroa destructor; conditions: assessed 6 h, 24 h, 30 h post exposure; various concentrations and exposure times
Experimental: In a series of assays, Whatman filter paper was impregnated with various concentrations of the caffeic ester family of molecules. Varroa mites were freshly harvested from brood frames and then directly exposed to the substrate. The exposure time was varied across different experiments. The Varroa mites were removed and placed into an incubator with pupae to feed on. Mite mortality and mite activity was assessed at several time points (6 h, 24 h, 30 h) post exposure.

Structure (SMILES)	mite mortality [1]	statistically significant mite mortality (Kruskal-Wallis) [1]	further results
O=C(/C=C/c1ccc(O)c(O)c1)OCC=Cc1ccccc1 [caffeic acid cinnamyl ester]	over 60%		
O=C(/C=C/c1ccc(O)c(O)c1)OCCc1ccccc1 [caffeic acid phenethyl ester]			relative efficacy (mite mortality and activity) [2]: most efficacious molecule tested
O=C(O)/C=C/c1ccc(O)c(O)c1 [caffeic acid]		all of the molecules except caffeic acid and ferulic acid showed statistically significant mite mortality	
COc1cc(/C=C/C(=O)OCC=C(C)C)ccc1O [ferulic acid 3-methyl-2-butenyl ester]	over 60%		
COc1cc(/C=C/C(=O)O)ccc1O [ferulic acid]		all of the molecules except caffeic acid and ferulic acid showed statistically significant mite mortality	
Cc1ccc(C(C)C)c(O)c1 [thymol, reference compound]			mortality at 100000 µg/mL ([1]; Varroa destructor, 6 h, read-out: mortality (positive control)): 100%
